In PubChem BioAssay (NCI):
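Tested at 5 concentrations; 48 h exposure; 96-well plates; endpoints linearly interpolated, else capped at highest concentration. At the TGI there is no net growth.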

How the values were obtained:
Assay in all cases: inhibition of tumour cell growth, NCI panel, 48 h
UO-31 renal = test system: UO-31 renal
PC-3 prostate = test system: PC-3 prostate
SK-OV-3 ovarian = test system: SK-OV-3 ovarian
T-47D breast = test system: T-47D breast
SK-MEL-2 melanoma = test system: SK-MEL-2 melanoma
BT-549 breast = test system: BT-549 breast
NCI-H23 lung = test system: NCI-H23 lung
EKVX NSCLC = test system: EKVX NSCLC
MCF7 breast = test system: MCF7 breast
SK-MEL-5 melanoma = test system: SK-MEL-5 melanoma
KM12 colon = test system: KM12 colon
CAKI-1 renal = test system: CAKI-1 renal
HCT-116 colon = test system: HCT-116 colon
A549 NSCLC = test system: A549 NSCLC
HOP-92 NSCLC = test system: HOP-92 NSCLC
M14 melanoma = test system: M14 melanoma
DU-145 prostate = test system: DU-145 prostate
OVCAR-5 ovarian = test system: OVCAR-5 ovarian
SF-295 CNS = test system: SF-295 CNS

Row | SMILES | TGI (UO-31 renal) [µM] | TGI (PC-3 prostate) [µM] | TGI (SK-OV-3 ovarian) [µM] | TGI (T-47D breast) [µM] | TGI (SK-MEL-2 melanoma) [µM] | TGI (BT-549 breast) [µM] | TGI (NCI-H23 lung) [µM] | TGI (EKVX NSCLC) [µM] | TGI (MCF7 breast) [µM] | TGI (SK-MEL-5 melanoma) [µM] | TGI (KM12 colon) [µM] | TGI (CAKI-1 renal) [µM] | TGI (HCT-116 colon) [µM] | TGI (A549 NSCLC) [µM] | TGI (HOP-92 NSCLC) [µM] | TGI (M14 melanoma) [µM] | TGI (DU-145 prostate) [µM] | TGI (OVCAR-5 ovarian) [µM] | TGI (SF-295 CNS) [µM]
1 | C=CC(C)CCC(C/C=C(\C)CCCC(C)C)C(=C)CCCC(C)C (stereo unspecified) | > 100 | > 100 | > 100 | > 100 | > 100 | > 100 | > 100 | > 100 | > 100 | > 100 | > 100 | > 100 | > 100 | > 100 | > 100 | > 100 | > 100 | > 100 | > 100
2 | CSc1ccc(/C=C/C(=O)c2nc3ccccc3[nH]2)cc1 | 19.9 | 68.6 | > 100 | 29.7 | 37.7 | 48.4 | 89.5 | 54.4 | 8.97 | 57.8 | 57 | 6.19 | 31.4 | 98.6 | > 100 | 36.8 | 13.2 | 88.2 | > 100
3 | O=C(O)c1[nH]c(=O)[nH]c(=O)c1CN1CCCCC1 | > 100 | > 100 | > 100 | > 100 | > 100 | > 100 | > 100 | > 100 | > 100 | > 100 | > 100 | > 100 | > 100 | > 100 | > 100 | > 100 | > 100 | > 100 | > 100
4 | CC(=O)OC(=C(C#N)C#N)c1nccnc1C(=O)O | > 100 | > 100 | > 100 | > 100 | > 100 | > 100 | > 100 | > 100 | > 100 | > 100 | > 100 | > 100 | > 100 | > 100 | > 100 | > 100 | > 100 | > 100 | > 100
5 | Nc1nc(Cl)cc(NCC2(CO)CC(CCCc3ccccc3)C2)n1 (stereo unspecified) | > 100 | > 100 | > 100 | > 100 | > 100 | > 100 | > 100 | > 100 | > 100 | > 100 | > 100 | > 100 | > 100 | > 100 | > 95.9 | > 100 | > 100 | > 100 | > 100
6 | O=c1[nH]c(=S)n(-c2cccc3ccccc23)c(O)c1/C=C1\C=Nc2ccccc21 | 4.93 | 6.74 | 14.5 | 19.3 | 3.55 | 3.55 | 3.48 | 5.38 | 7.19 | 3.12 | 6.87 | 8.65 | 4.55 | 20.6 | 4.85 | 3.77 | 3.55 | 5.47 | 10.3
7 | CC(C)C(C)C(O)C(O)C(C)C1CCC2C3COC(=O)C4CC(O)C(O)CC4(C)C3CCC12C (stereo unspecified) | > 100 | > 100 | > 100 | > 100 | > 100 | > 100 | > 100 | > 100 | > 100 | > 100 | > 100 | 26.3 | > 100 | > 100 | > 100 | > 100 | > 100 | > 100 | > 100
8 | C=C1CC(COc2ccc3c(C)c(Cl)c(=O)oc3c2)(c2ccccc2)OC1=O (stereo unspecified) | 12.5 | 5.49 | 16.2 | 4.15 | 3.36 | 2.87 | 3.84 | 31.2 | 5.14 | 3.63 | 6.69 | 3.12 | 2.42 | 27.9 | 3.01 | 2.24 | 9.66 | 25.9 | 22.7
9 | O=[N+]([O-])c1ccc(CSc2c3ccccc3nc3ccccc23)cc1 | 17 | 20 | 41.4 | 4.18 | 32.3 | 33.4 | 25.5 | 34.7 | > 100 | 30.5 | 16.2 | 29.6 | 7.14 | 51.4 | > 37.3 | 16.6 | 5.92 | 32.5 | 41.7
10 | CCOC(=O)CC[C@H](NC(=O)c1ccc(CNc2nc3cc(C(F)(F)F)ccc3nc2C(=O)OCC)cc1)C(=O)OCC | 70.3 | > 89.3 | > 100 | 60.8 | > 94.1 | 70.3 | > 100 | 42.7 | > 51.9 | > 66.6 | > 100 | 29.5 | > 100 | > 100 | 48.9 | > 66.2 | > 100 | > 86 | 24.7
11 | CC(=O)N(C(=O)CC(=O)NNCc1ccccc1Cl)c1ccc(Cl)cc1 | > 10 | > 10 | > 10 | > 10 | > 10 | > 10 | > 10 | > 10 | > 10 | > 10 | > 10 | > 10 | > 10 | > 10 | > 10 | > 10 | > 10 | > 10 | > 10
12 | CCCCCCCCCCCCCCC(C(=O)[O-])[n+]1ccccc1 (stereo unspecified) | > 100 | 77.6 | > 100 | > 100 | > 100 | > 100 | > 100 | > 100 | 50.9 | > 100 | > 100 | > 100 | > 100 | > 100 | > 100 | > 100 | > 100 | > 100 | > 100
13 | CC(=O)NC1C(O)C(O)C(CO)OC1n1nc(SCc2ccccc2)c(=O)[nH]c1=O (stereo unspecified) | > 100 | > 100 | > 100 | > 100 | > 100 | > 100 | > 100 | > 100 | > 100 | > 100 | > 100 | > 100 | > 100 | > 100 | > 100 | > 100 | > 100 | > 100 | > 100
14 | O=P1(N(CCCl)CCCl)Oc2c(Cl)cc(Cl)c(Cl)c2Cc2c(Cl)c(Cl)cc(Cl)c2O1 | > 100 | > 100 | > 100 | > 100 | 74.5 | > 100 | > 100 | > 100 | > 100 | > 100 | > 100 | > 100 | > 100 | > 100 | 66.5 | > 100 | > 100 | > 100 | > 100
15 | Cn1c(=O)c2c(nc(N3CCOCC3)n2CCCNCC(O)c2ccc(O)c(O)c2)n(C)c1=O (stereo unspecified) | > 100 | > 100 | > 100 | > 100 | > 100 | > 100 | > 100 | > 100 | > 100 | > 100 | > 100 | > 100 | > 100 | > 100 | > 100 | > 100 | > 100 | > 100 | > 100
16 | c1cc2c(cc1NC1=NCCO1)CCCC2 | 51.8 | 15.5 | 27.1 | > 88.7 | 11.4 | 75.7 | 16 | 47 | 41.5 | 9.17 | 10.5 | > 88.1 | 16 | 39.9 | 19.3 | 12.2 | 24.6 | 39.7 | 25.6
17 | CSC1=C(C(=O)N(COCC[Si](C)(C)C)c2ccccc2Br)CCC(C(C)(C)C)C1 (stereo unspecified) | 27 | > 100 | > 100 | 34.3 | 31.7 | > 100 | > 100 | 37.8 | 28 | 27.2 | 42.2 | 18.1 | 18.3 | > 100 | 45.8 | 76.3 | > 100 | 28.7 | 25.6
18 | Cc1nnc(N2C(=O)C(=Cc3ccc(Cl)cc3)N=C2c2ccc(Cl)cc2)nc1/C=C\c1ccc(N(C)C)cc1 | > 100 | > 100 | > 100 | > 100 | > 100 | > 100 | > 100 | > 100 | > 100 | > 100 | > 100 | > 100 | > 100 | > 100 | > 100 | > 100 | > 100 | > 100 | > 100
19 | COC(=O)c1c(O)ccc2c1c1cc3ccccc3c(O)c1n2Cc1ccccc1Cl | 64.1 | > 100 | 48.6 | 60.7 | 40.7 | 91.7 | 46.2 | 87.1 | > 100 | 56.2 | 61.8 | 61.9 | 28 | > 100 | 91.7 | 59.1 | > 100 | > 100 | 40.3
20 | CCCCCCCCCCCCCCCCCCNc1ccn(C2OC(COP(=O)(O)OCC(COP(=O)(O)OCC3OC(n4cc(C)c(=O)[nH]c4=O)CC3N=[N+]=[N-])OCCCCCCCCCCCCCCCCCC)C(O)C2O)c(=O)n1 (stereo unspecified) | 33.1 | > 100 | > 100 | > 100 | > 100 | > 100 | > 100 | > 100 | > 100 | > 100 | > 100 | > 100 | > 100 | > 100 | > 100 | > 100 | > 100 | > 100 | > 100
21 | CN(C)CCn1c2c(c3ccccc31)CCc1ccccc1-2 | 26.8 | 23.5 | 32.7 | 54.8 | 28.6 | 27.8 | 31.4 | 32.4 | 30.5 | 21.1 | 26.3 | 29.4 | 26.3 | 28.3 | 27 | 26.3 | 29.8 | 31.7 | 30.6
22 | Nc1cc(N2CCOCC2)nc(=O)n1-c1ccccc1 | > 100 | > 100 | > 100 | > 100 | > 100 | > 100 | > 100 | > 100 | > 100 | > 100 | > 100 | > 100 | > 100 | > 100 | > 100 | > 100 | > 100 | > 100 | > 100
23 | CCC(C#N)NCc1ccc(CNC(C#N)CC)cc1 (stereo unspecified) | > 100 | > 100 | > 100 | > 100 | > 100 | > 100 | > 100 | > 100 | > 100 | > 100 | > 100 | > 100 | > 100 | > 100 | > 100 | > 100 | > 100 | > 100 | > 100
24 | O=S(=O)(Nc1nc2ccccc2nc1Nc1cccc2ccccc12)c1ccccc1 | > 100 | > 100 | > 100 | > 100 | > 100 | > 100 | 64.4 | > 100 | > 100 | > 100 | > 100 | > 100 | > 100 | > 100 | 16.5 | > 100 | > 100 | > 100 | > 100
